pKd: −log10 of the molar value. Ends that are not written are not given here. * marks the point of attachment. Biotin = O=C1N[C@H]2[C@H](CS[C@H]2CCCCC(=O)*)N1
How the values were obtained:
ACE = target: ACE; design: method as in 2 sources, one per row (each row's own in cited_ref): ref 35 = [35]; PMID 18201802; doi:10.1016/j.peptides.2007.12.004; 35. Morissette G. Couture J.P. Désormeaux A. Adam A. Marceau F. Lack of direct interaction between enalaprilat and the kinin B 1 receptors Peptides 2008 29 606 612 10.1016/j.peptides.2007.12.004 18201 ||| ref 36 = [36]; PMID 20452384; doi:10.1016/j.peptides.2010.04.027; 36. Koumbadinga G.A. Bawolak M.T. Marceau E. Adam A. Gera L. Marceau F. A ligand-based approach to investigate the expression and function of angiotensin converting enzyme in intact human umbilical ve; details: cited from earlier work
Description: Primary cultures of human umbilical vein endothelial cells (HUVECs) are a standard model for which significant information is available. These cells express at their surface a high number of ACE molecule, as judged from the saturable binding of [^3 ...

B2 receptor = details: cited from earlier work
Description: (§1) (Figure 2). Thus, the EIA signal may be contaminated with the inert metabolite generated by aminopeptidase P, a significant peptidase that inactivates BK [17]. One way out is to couple the EIA quantification with chromatographic separation of kinins, such as HPLC [29].

B1 receptor = details: cited from earlier work
Description: as §1

[1] = test system: polyclonal anti-BK antibodies; experiment: Cross-reactivity of the BK EIA (Phoenix Pharmaceuticals) with kinin sequences; type: binding; details: Figure 2 (reproduced in part from ref 12)
Description: BK and related peptides are formed locally close to their site of action (autacoids). They are extremely unstable and prone to artefactual formation when blood or tissues are sampled (for instance, following contact of blood with glass). Therefore, measuring kinins in venous blood is not really informative, contrasting with many useful peptide hormone dosages applied in endocrinology. A further challenge in concentration determination is that the BK sequence is embedded in that of precursor kininogens, with necessary separation if an antibody-based detection system is considered. Blais et al. have reviewed these pitfalls and discussed extraction procedures and recovery in the context of the currently applied immunoassays. Professor A. Adam and co-workers developed separate competitive chemiluminescence enzyme immunoassays (EIAs) for BK and des-Arg^9-BK based on digoxygenin-conjugated peptides. Now several commercially available kits are being used, such as that from Phoenix Pharmaceuticals for BK (96-well plate format), and these have the advantage of world-wide reproducibility. The sensitivity of EIAs is excellent. […]
(Figure 2). […] One way out is to couple the EIA quantification with chromatographic separation of kinins, such as HPLC [29]. […]

human B1 receptor = details: cited from earlier work
Description: The present paper reviews recent literature, contains some original results, and aims to illustrate the role of the analytical biochemistry of BK-related kinins in the understanding of angioedema (AE) mediated by kinins. The kallikrein –kinin system is made of many molecular participants present or secreted in blood plasma or present at the vascular endothelial surface (Figure 1). There are two different precursors of kinins, low and high molecular weight kininogens (LK, HK; abbreviations are defined in Table 1). Those proteins are encoded by alternative splicing of a single gene ...

[2] = test system: polyclonal anti-BK antibodies; details: cited from earlier work; for cross-reactivity in the BK EIA as stated by the manufacturer: ref Phoenix Pharmaceuticals
Description: BK and related peptides are formed locally close to their site of action (autacoids). They are extremely unstable and prone to artefactual formation when blood or tissues are sampled (for instance, following contact of blood with glass). Therefore, measuring kinins in venous blood is not really informative, contrasting with many useful peptide hormone dosages applied in endocrinology. A further challenge in concentration determination is that the BK sequence is embedded in that of precursor kininogens, with necessary separation if an antibody-based detection system is considered. Blais e ... || Figure 2 Cross-reactivity of the BK EIA with selected kinin sequences. […] Reproduce ...

[3] = Degradation of BK by intact adherent HUVECs (Phoenix Pharmaceuticals BK EIA)
Method: Samples were incubated at 37 °C under agitation for the indicated time periods before extraction and EIA determination of BK. The number of replicated from different healthy donors is indicated by “n”. […] Reproduced from.
(§2) ACE activity in serum or blood plasma corresponds, in healthy individuals, to a form of the protein shed from the vascular endothelial cells in an apparently regulated manner. ACE, membrane arginine carboxypeptidase (carboxypeptidase M), aminopeptidase P and other potential kininases are expressed at the surface of vascular endothelial cells. Primary cultures of human umbilical vein endothelial cells (HUVECs) are a standard model for which significant information is available.

[4] = BK 10 ng/mL, adherent HUVECs at 37 °C without serum, radioimmunoassay; cited from earlier work
Description: as §2, with “available. These cells express at their surface a high number of ACE molecule, as judged from the saturable binding of [^3 ...” for “available.”

[5] = cited from earlier work
Method: Samples were incubated at 37 °C under agitation for the indicated time periods before extraction and EIA determination of BK. The number of replicated from different healthy donors is indicated by “n”. […] Reproduced from. (B) Catabolism of BK ... || One stored plasma sample that was received in our laboratory was partly clotted and excluded from our previous studies. […] Secondly, the par ...

[6] = BK added ex vivo to plasma of healthy subjects who took two daily doses of enalapril maleate; cited from earlier work

Compound: C[C@H](N[C@@H](CCc1ccccc1)C(=O)O)C(=O)N1CCC[C@H]1C(=O)O [[^3H]enalaprilat, enalaprilat]
- pKd (ACE; saturable binding to intact HUVECs): 9.64

Compound: BK1–5: BK fragment produced by two cycles of ACE activity, more stable than most kinins (RPPGF; Bradykinin; UniProt P01042 381-385, looked up, fragment)
- activity on B2 receptors (B2 receptor): inactive
- activity on B1 receptors (B1 receptor): inactive

Compound: BK1–7: BK fragment produced by ACE (RPPGFSP; Bradykinin; UniProt P01042 381-387, looked up, fragment)
- activity on B2 receptors (B2 receptor): inactive
- activity on B1 receptors (B1 receptor): inactive

Compound: D-Arg-BK-Arg-Arg
- cross-reactivity in the BK EIA vs. BK [1]: loses much affinity
- cross-reactivity in the BK EIA vs. BK ([1]; listed as Arg-BK-Arg-Arg): partial reactivity

Compound: Lys-des-Arg^9-BK
- affinity for the human form of the B1 receptor (human B1 receptor): subnanomolar affinity
- cross-reactivity in the BK EIA ([2]; Phoenix Pharmaceuticals BK EIA): do not cross react at all

Compound: RPPGFSPFR [BK, bradykinin]
- stability in wells without cells (nude plastic) [3]: stable
- half-life at 10 nM ([3]; human, pH 7.4): 12.3 min
- half-life [4]: about 50 min
- time in which BK was completely cleared [5]: 5 min
- half-life (first order decay) ([5]; human): 7.1 min
- t1/2 ([5]; human): 0.567 min
- increase of BK t1/2 relative to the pre-treatment value [6]: ~ 5 fold

Compound: biotinyl-BK (Biotin-RPPGFSPFR; UniProt P01042 381-389, looked up) [biotin-labelled BK tracer]
- cross-reactivity in the BK EIA as stated by the manufacturer [2]: fully cross-reacts

Compound: des-Arg^9-BK (RPPGFSPF; Bradykinin; UniProt P01042 381-388, looked up, fragment) [BK metabolite produced by arginine carboxypeptidases (kininase I)]
- affinity for the human form of the B1 receptor (human B1 receptor): very weak affinity
- cross-reactivity in the BK EIA as stated by the manufacturer [2]: not

Compound: lysyl-bradykinin [Lys-BK]
- cross-reactivity in the BK EIA as stated by the manufacturer [2]: fully cross-reacts
- displacement of [3H]enalaprilat binding (ACE; HUVECs): displaced
